The values that follow come from US20210261512A1, “NOVEL COMPOUNDS” (INFLAZOME LIMITED, priority 2018, published 2021).

Experiment [1] has as its target T1, NLRP3 (Homo sapiens, UniProt Q96P20). Nature of the experiment: Human whole blood IL1β release assay. Type of experiment: cell-based. As to conditions: LPS 1 μg/ml, nigericin 10 μM, IL-1β AlphaLisa, 10 μM top dose (Example 2: top dose of 30 μM), read-out: HWB IC50. The method, boiled down: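 Healthy-donor heparinised human whole blood with 1 μg/ml LPS, compound (8-point half-log dilution, 10 μM top dose unless stated; 0.1% DMSO vehicle) for 3 h at 37 °C, then nigericin 10 μM final for 1 h. Supernatant IL-1β by AlphaLISA; IC50 from 4-parameter variable-slope fit.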

The target of experiment [2] is T1, NLRP3. Nature of the experiment: THP-1 cells pyroptosis assay. Type of experiment: cell-based. Details: Seed THP-1 cells (25,000 cells/well) containing 1.0 μg/ml LPS; host or cells: THP-1. As to conditions: LPS 1.0 μg/ml, nigericin 5 μM, resazurin readout, 10 μM top dose (Example 2: top dose of 30 μM). The method, boiled down: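 Pyroptosis induced by 5 μM nigericin (1 h) in LPS-primed (1 μg/ml) THP-1 cells, 25,000/well in serum-free RPMI, after 3 h compound pre-treatment (8 points, 10 μM top unless stated). Surviving cells measured with 100 μM resazurin, Ex 560/Em 590; IC50 via variable-slope 4-parameter regression.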

T1 sequence (Q96P20 whole entry): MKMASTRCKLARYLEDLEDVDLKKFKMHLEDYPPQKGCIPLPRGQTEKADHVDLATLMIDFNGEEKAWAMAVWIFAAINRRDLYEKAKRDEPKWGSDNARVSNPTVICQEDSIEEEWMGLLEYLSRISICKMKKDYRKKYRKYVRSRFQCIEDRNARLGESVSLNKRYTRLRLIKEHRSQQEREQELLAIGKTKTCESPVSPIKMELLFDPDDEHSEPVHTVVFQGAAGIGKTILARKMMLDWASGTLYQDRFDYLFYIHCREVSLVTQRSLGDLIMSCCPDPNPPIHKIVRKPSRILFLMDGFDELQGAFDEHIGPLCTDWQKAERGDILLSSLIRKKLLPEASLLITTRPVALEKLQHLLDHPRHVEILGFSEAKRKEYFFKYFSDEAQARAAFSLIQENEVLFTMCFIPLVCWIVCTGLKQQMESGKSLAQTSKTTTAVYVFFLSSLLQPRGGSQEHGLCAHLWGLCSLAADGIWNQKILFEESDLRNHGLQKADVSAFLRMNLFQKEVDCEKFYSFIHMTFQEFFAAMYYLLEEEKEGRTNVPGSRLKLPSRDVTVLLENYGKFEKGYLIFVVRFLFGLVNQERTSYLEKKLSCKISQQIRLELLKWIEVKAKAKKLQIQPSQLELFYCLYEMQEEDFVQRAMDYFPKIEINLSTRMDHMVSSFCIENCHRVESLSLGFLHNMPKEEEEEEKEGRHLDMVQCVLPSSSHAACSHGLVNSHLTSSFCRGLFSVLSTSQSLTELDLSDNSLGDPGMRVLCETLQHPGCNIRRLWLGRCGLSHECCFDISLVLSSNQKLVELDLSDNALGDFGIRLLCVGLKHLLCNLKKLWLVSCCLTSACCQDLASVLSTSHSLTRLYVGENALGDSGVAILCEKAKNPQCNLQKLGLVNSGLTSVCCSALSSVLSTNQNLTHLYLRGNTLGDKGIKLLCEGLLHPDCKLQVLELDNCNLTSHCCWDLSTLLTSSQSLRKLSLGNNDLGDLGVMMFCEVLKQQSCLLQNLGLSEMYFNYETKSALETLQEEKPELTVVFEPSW

For `CN(C)C(=O)Cn1ccc(S(=O)(=O)c2nnc(Nc3c4c(cc5c3CCC5)CCC4)[nH]2)n1` [Example 320, 2-(3-((5-((1,2,3,5,6,7-hexahydro-s-indacen-4-yl)amino)-4H-1,2,4-triazol-3-yl)sulfonyl)-1H-pyrazol-1-yl)-N,N-dimethylacetamide], the IC50 is no more than 5000 nM in experiment [1] and no more than 500 nM in experiment [2].

On to `COc1cc(-c2ccc3c(c2Nc2nnc(S(=O)(=O)N4CCC5(CCCN5C)CC4)[nH]2)CCC3)ccn1` [Example 258, N-(5-(2-methoxypyridin-4-yl)-2,3-dihydro-1H-inden-4-yl)-5-((1-methyl-1,8-diazaspiro[4.5]decan-8-yl)sulfonyl)-4H-1,2,4-triazol-3-amine], for which the IC50 is no more than 1000 nM in experiment [1] and no more than 500 nM in experiment [2].

Turning to `CN1CCC12CCN(S(=O)(=O)c1nnc(Nc3c(-c4ccnc(OC(F)F)c4)ccc4c3CCO4)[nH]1)CC2` [Example 202, N-(5-(2-(difluoromethoxy)pyridin-4-yl)-2,3-dihydrobenzofuran-4-yl)-5-((1-methyl-1,7-diazaspiro[3.5]nonan-7-yl)sulfonyl)-4H-1,2,4-triazol-3-amine], the IC50 was no more than 1000 nM in experiment [1] and no more than 500 nM in experiment [2].

`CN(C)C1CN(S(=O)(=O)c2nnc(Nc3c4c(cc5c3CCC5)CCC4)[nH]2)C1` [Example 91, 5-((3-(dimethylamino)azetidin-1-yl)sulfonyl)-N-(1,2,3,5,6,7-hexahydro-s-indacen-4-yl)-4H-1,2,4-triazol-3-amine]: the IC50 in experiment [1] and in experiment [2] was no more than 5000 nM in each case.

Take `CN(C)C1CCN(S(=O)(=O)c2nnc(Nc3c(-c4ccnc(OC(F)F)c4)ccc4c3CCC4)[nH]2)CC1` [Example 222, 1-((5-((5-(2-(difluoromethoxy)pyridin-4-yl)-2,3-dihydro-1H-inden-4-yl)amino)-4H-1,2,4-triazol-3-yl)sulfonyl)-N,N-dimethylpiperidin-4-amine]: the IC50 was no more than 1000 nM in experiment [1] and no more than 500 nM in experiment [2].

For the compound `CCN(CC)C[C@@H]1CCN(S(=O)(=O)c2nnc(Nc3c4c(cc5c3CCC5)CCC4)[nH]2)C1` [Example 143, (S)-5-((3-((diethylamino)methyl)pyrrolidin-1-yl)sulfonyl)-N-(1,2,3,5,6,7-hexahydro-s-indacen-4-yl)-4H-1,2,4-triazol-3-amine], the 50% inhibitory concentration (IC50) in experiment [1] and in experiment [2] was no more than 500 nM in each case.

Consider `CC(c1cc(S(=O)(=O)c2nnc(Nc3c4c(cc5c3CCC5)CCC4)[nH]2)nn1C)N(C)C` (centres unmarked) [Example 5, 5-((5-(1-(dimethylamino)ethyl)-1-methyl-1H-pyrazol-3-yl)sulfonyl)-N-(1,2,3,5,6,7-hexahydro-s-indacen-4-yl)-4H-1,2,4-triazol-3-amine], for which the IC50 is no more than 10000 nM in experiment [1] and no more than 500 nM in experiment [2].

Consider `CN1CCCCC1CCS(=O)(=O)c1nnc(Nc2c3c(cc4c2CCC4)CCC3)[nH]1` (centres unmarked) [Example 59, N-(1,2,3,5,6,7-Hexahydro-s-indacen-4-yl)-3-((2-(1-methylpiperidin-2-yl)ethyl)sulfonyl)-1H-1,2,4-triazol-5-amine], for which the IC50 was no more than 1000 nM in experiment [1] and no more than 500 nM in experiment [2].

As to `CN1CC2CN(S(=O)(=O)c3nnc(Nc4c5c(cc6c4CCC6)CCC5)[nH]3)CC2C1` (centres unmarked) [Example 138, N-(1,2,3,5,6,7-hexahydro-s-indacen-4-yl)-5-((5-methylhexahydropyrrolo[3,4-c]pyrrol-2 (1H)-yl)sulfonyl)-4H-1,2,4-triazol-3-amine], the IC50 in experiment [1] and in experiment [2] was no more than 5000 nM in each case.

Consider `[2H]C([2H])([2H])Oc1cc(-c2ccc3c(c2Nc2nnc(S(=O)(=O)N4CC5(CCN(C)C5)C4)[nH]2)CCO3)ccn1` [Example 195, N-(5-(2-(methoxy-d)pyridin-4-yl)-2,3-dihydrobenzofuran-4-yl)-5-((6-methyl-2,6-diazaspiro[3-4]octan-2-yl)sulfonyl)-4H-1,2,4-triazol-3-amine], for which the IC50 in experiment [1] and in experiment [2] was no more than 500 nM in each case.

`O=S(=O)(c1nnc(Nc2c3c(cc4c2CCC4)CCC3)[nH]1)N1CC2(CCOCC2)C1` [Example 145, 5-(7-oxa-2-azaspiro[35]nonan-2-ylsulfonyl)-N-(1,2,3,5,6,7-hexahydro-s-indacen-4-yl)-4H-1,2,4-triazol-3-amine]: the IC50 in experiment [1] was no more than 5000 nM; in experiment [2], no more than 1000 nM.

`CN(C)C(=O)C1CCN(S(=O)(=O)c2nnc(Nc3c4c(cc5c3CCC5)CCC4)[nH]2)C1` (centres unmarked) [Example 139, 1-((5-((1,2,3,5,6,7-hexahydro-s-indacen-4-yl)amino)-4H-1,2,4-triazol-3-yl)sulfonyl)-N,N-dimethylpyrrolidine-3-carboxamide]: the IC50 is no more than 10000 nM in experiment [1] and no more than 1000 nM in experiment [2].

In the case of `O=S(=O)(NCC1CCCCN1)c1nnc(Nc2c3c(cc4c2CCC4)CCC3)[nH]1` (centres unmarked) [Example 132, 5-((1,2,3,5,6,7-hexahydro-s-indacen-4-yl)amino)-N-(piperidin-2-ylmethyl)-4H-1,2,4-triazole-3-sulfonamide], the IC50 in experiment [1] is no more than 10000 nM; in experiment [2], no more than 500 nM.

On to `CN1CCC2(CC1)CN(S(=O)(=O)c1nnc(Nc3c4c(cc5c3CCC5)CCC4)[nH]1)C2` [Example 275, N-(1,2,3,5,6,7-hexahydro-s-indacen-4-yl)-5-((7-methyl-2,7-diazaspiro[3-5]nonan-2-yl)sulfonyl)-4H-1,2,4-triazol-3-amine], for which the IC50 is no more than 1000 nM in experiment [1] and no more than 5000 nM in experiment [2].

For the compound `CC(C)c1cnn(-c2ccncc2)c1Nc1nnc(S(=O)(=O)N2CCC(N(C)C)CC2)[nH]1` [Example 197, 1-((5-((4-isopropyl-1-(pyridin-4-yl)-1H-pyrazol-5-yl)amino)-4H-1,2,4-triazol-3-yl)sulfonyl)-N,N-dimethylpiperidin-4-amine], the IC50 in experiment [1] and in experiment [2] was no more than 500 nM each time.

As for `CCN(CC)CCN(C)S(=O)(=O)c1nnc(Nc2c3c(cc4c2CCC4)CCC3)[nH]1` [Example 80, N-(2-(diethylamino)ethyl)-3-((1,2,3,5,6,7-hexahydro-s-indacen-4-yl)amino)-N-methyl-1H-1,2,4-triazole-5-sulfonamide], the IC50 in experiment [1] was no more than 5000 nM; in experiment [2], no more than 1000 nM.

On to `O=S(=O)(NCCN1CCC1)c1nnc(Nc2c3c(cc4c2CCC4)CCC3)[nH]1` [Example 89, N-(2-(azetidin-1-yl)ethyl)-5-((1,2,3,5,6,7-hexahydro-s-indacen-4-yl)amino)-4H-1,2,4-triazole-3-sulfonamide], for which the half-maximal inhibitory concentration (IC50) was no more than 5000 nM in experiment [1] and no more than 1000 nM in experiment [2].

Turning to `CN(C)CC1CCN(S(=O)(=O)c2nnc(Oc3c4c(cc5c3CCC5)CCC4)[nH]2)C1` (centres unmarked) [Example 286, 1-(1-((5-((1,2,3,5,6,7-hexahydro-s-indacen-4-yl)oxy)-4H-1,2,4-triazol-3-yl)sulfonyl)pyrrolidin-3-yl)-N,N-dimethylmethanamine], the IC50 in experiment [1] is no more than 10000 nM; in experiment [2] it was no more than 5000 nM.

As to `[2H]C([2H])([2H])Oc1cc(-c2ccc3c(c2Nc2nnc(S(=O)(=O)N4CC[C@H](C(C)(C)O)C4)[nH]2)CCC3)ccn1` [Example 344, (S)-2-(1-((5-((5-(2-(methoxy-d3)pyridin-4-yl)-2,3-dihydro-1H-inden-4-yl)amino)-4H-1,2,4-triazol-3-yl)sulfonyl)pyrrolidin-3-yl)propan-2-ol], the IC50 is no more than 5000 nM in experiment [1] and no more than 500 nM in experiment [2].
